Reference: patent US20160279190A1, “MODULATION OF AXON DEGENERATION” (GENENTECH, INC., priority 2008, published 2016)
Entries after “also recorded” stand apart in the source; their conditions may differ. Starred links: 1 amine or outer side, 2 acyl side, 3 side chain; linkers in the order of their positions; H or OH if unused. Positions of bridges follow the written chain, without caps; N, C: chain ends. Non-standard residues stand in square brackets, D forms with d. Residues, ends and D or L forms follow the SMILES beside them. Chains are numbered I, II in the order given. Actinocin(9to1) = Cc1c2oc3c(C)ccc(C(=O)[*:1])c3nc-2c(C(=O)[*:2])c(N)c1=O; NMeV = CN[C@H](C(=O)O)C(C)C; Sar = CNCC(=O)O

Tests used:
DRGs [1] = experiment: anti-NGF antibody (NGF withdrawal) screen for inhibitors of neuron or axon degeneration; assay type: cell-based, mouse; conditions: inhibitor 100 μM or 10 μM added 1 hour before 25 μg/ml anti-NGF antibodies; 20 hours; actin staining
Experimental: The anti-NGF antibody model described above in Example 1 was used in a screen for inhibitors of neuron or axon degeneration. A library of more than 400 small molecules (Tocris Bioscience) was tested to see which, if any, modulate degeneration observed in the presence of anti-NGF antibodies.
Mouse E13.5 embryos were dissected and placed into L15 medium (Invitrogen). The spinal cord was dissected out from the embryos with DRGs attached. The spinal cords with DRGs attached were placed into L15 medium+5% goat serum (Gibco) on ice. The DRGs were removed using a tungsten needle and the remaining spinal cord was disposed of. Eight well slides were filled with N3-F12 solution (23 ml Ham's F12, 1 ml N3 supplement, and 1 ml 1 M glucose) to which was added 25 ng/ml NGF (Roche). (N3 supplement was made by dilution of N3 100× concentrate, which was made by mixing the following ingredients, in the following order: 5.0 ml Hank's buffered saline solution (HBSS; Ca, Mg free; Invitrogen), 1.0 ml bovine serum albumin (10 mg/ml in HBSS=150 μm), 2.0 ml Transferrin (T1147-1G, human, 100 mg/ml in HBSS=1.1 mM), 1.0 ml sodium selenite (S9133-1MG, 0.01 mg/ml in HBSS=58 μM), 0.4 ml putrescine dihydrochloride (P5780-5G, 80 mg/ml in HBSS=500 mM), 0.2 ml progesterone (P8783-5G, 0.125 mg/ml in absolute ethanol=400 μM), 0.02 ml corticosterone (C2505-500MG, 2 mg/ml in absolute ethanol=5.8 mM), 0.1 ml triiodothyonine, sodium salt (T6397-100MG, 0.2 mg/ml in 0.01 N NaOH=300 μM), 0.4 ml insulin (16634-250MG, bovine pancreas, 241 U/mg, 25 mg/ml in 20 mM HCl=4.4 mM), for a total volume of 10.02 ml (can be stored at −20° C.). An N3 supplement stock was made by combining the following: 10 ml Pen/Strep (100×, Gibco), 10 ml glutamine (200 mM, Gibco), 10 ml MEM vitamins (100×, Gibco), 10 ml N3 concentrate (100×, see above), for a total volume of 40 ml. The mixture was filter sterilized using a 0.22 μm filter, and 1-2 ml aliquots were stored at −20° C.).
The DRGs were sectioned into halves, and placed in the center of each well of an 8-chamber slide (BD Biocoat PDL/Laminin coated glass, Becton Dickinson). The DRGs were permitted to attach to the slide at room temperature for 5-10 minutes, followed by an overnight incubation at 37° C. Inhibitors of choice were added at a concentration of 100 μM (top row) or 10 μM (bottom row) 1 hour before adding anti-NGF antibodies. The anti-NGF antibodies were added to the right half of the slide (4 wells) at a concentration of 25 μg/ml. After incubation for 20 hours at 37° C., the slides were fixed with 30% sucrose/8% paraformaldehyde (PFA) by adding 250 μl of the fix solution directly to the 250 μl of culture medium. (To make the 30% sucrose/8% PFA solution, the following ingredients were added to a 600 ml beaker including a stir bar: 250 ml 16% PFA (cat#15710-S, Electron Microscopy Sciences), 50 ml 10×PBS pH 7.4, and 150 g sucrose. The solution was mixed under low heat until dissolved, and then 6-8 drops of 1 M NaOH were added to bring the pH to 7.4. The volume was then brought to 500 ml with water in a graduated cylinder. The solution was mixed well, placed in aliquots, and frozen.) The slides were fixed for 30 minutes, followed by washing once with PBS. All cells were labeled with an actin stain (Alexa-568 conjugated phalloidin; 1:40; Invitrogen), a membrane dye (DiO; 1:200; Invitrogen), and a DNA stain (Hoechst 33258; 1:10,000; Invitrogen) in 0.1% Triton and 1% goat serum for 2 hours at room temperature. […]

DRGs [2] = experiment: Campenot chamber local axon degeneration, anti-NGF in axon compartment; assay type: cell-based, mouse; conditions: for Axon Compartment (axon protected when inhibitor is in axon compartment) / Cell Body Compartment (axon protected when inhibitor is in cell body compartment): anti-NGF in axon compartment, 28 hours
Experimental: Teflon dividers (Tyler Research) were cleaned by washing in water and wiping them clean of any residual grease. Dividers were then soaked in Nochromix (Godax Laboratories)/sulfuric acid overnight, rinsed five times in distilled and autoclaved water (SQ water), boiled for 30 minutes, and then air-dried before use.
Mouse laminin (5 μg/ml in sterile filtered water; Invitrogen) was added to PDL coated 35 mm dishes (BD Biosciences) and they were incubated for 1 hour at 37° C., followed by two rinses in SQ water. The dishes were vacuum-dried and then air-dried in a laminar flow hood for 15 minutes. Prepared dishes were then scored with a pin rake (Tyler Research). […] High vacuum grease (VWR) was added to each Teflon divider under a dissection scope. The laminin coated PDL dishes were inverted and dropped onto the Teflon divider, with additional pressure added by use of a toothpick in the non-track-containing regions. Dishes were incubated for 1 hour at 37° C. Five hundred microliters of NBM+MC (50 ng/ml NGF) solution was added to each of the side compartments, and a grease barrier was added in front of the center cell slot.
Free E13.5 spinal cords were dissected from mouse embryos and placed into NBM+MC (25 ng/ml NGF) solution. DRGs were detached from the spinal cord with a tungsten needle. An NBM+MC-lubricated P200 pipette was used to move DRGs into a 1.5 ml tube. DRGs were pelleted with a tabletop centrifuge for 30 seconds. The supernate was discarded and 0.05% Trypsin/EDTA (cold) was added. The pellet was resolubilized with a pipette and incubated at 37° C. for 15 minutes with constant agitation (650 RPM). The sample was again centrifuged and the supernate discarded. The pellet was resuspended in warm NBM+MC (50 ng/ml NGF) solution and triturated with a flamed glass pipette 20 times, followed by trituration with a fire-bored glass pipette another 20 times. The samples were again centrifuged and the resulting pellets were resuspended in 0.5 ml NBM+MC (50 ng/ml NGF) solution. The cells were diluted to a final concentration of 2.5×10^6 cells/ml. The cell suspensions were loaded into a 1 ml syringe with a 22 gauge needle. The center slot of the Campenot divider was filled using the syringe (to a volume of at least 50 μl). The Campenot chamber was incubated overnight at 37° C. 2.5 ml NGF+MC (50 ng/ml NGF) solution was added to the center compartment and the grease gate was removed. The outer medium (cell body compartment) was replaced after three days with 2.5 ml NBM+MC medium (with 25 ng/ml NGF). After five days in culture, one distal compartment was washed three times with warmed NBM+MC (no NGF) solution. After the third wash, 500 μl NBM+MC (no NGF) solution was added to the axon compartment in combination with either 0.5% DMSO or an inhibitor. The cell body compartment was replaced with 2.5 ml NBM+MC medium (with 25 ng/ml NGF) containing either 0.5% DMSO or inhibitor.
After 28 hours of anti-NGF antibody treatment, 8% PFA/30% sucrose solution (see above) was added directly to the culture medium at a 1:1 dilution and incubated for 30 minutes. The Teflon divider was removed after the first 15 minutes of addition. The system was washed once with 2.5 ml PBS prior to immunostaining. Neurons were blocked in 5% BSA/0.2% triton in PBS for 30 minutes. The primary antibody Tuj1 (Covance) was added to a final dilution of 1:1000 in PBS containing 2% BSA and incubated overnight at 4° C. The dish was washed once with PBS. […] The dish was washed twice with PBS, and a 22×22 mm coverslip (VWR) was added with 350 μl of fluoromount G (Electron Microscopy Sciences). The neurons were visualized by use of a fluorescence microscope.
As described above, E13.5 DRGs were isolated and grown for 5 days in a Campenot chamber.

DRG explants = experiment: pan-JNK inhibitors in DRG explants, NGF withdrawal assay; assay type: cell-based; conditions: anti-NGF plus inhibitor (FIG. 46)
Experimental: If DLK inhibition protects neurons from degeneration through limiting the phosphorylation of JNK2 and JNK3, then inhibitors of JNK2 or JNK3 should also protect neurons from cell death and axon degeneration. The ability of direct JNK inhibition to protect neurons against NGF withdrawal-dependent degeneration was also assessed. DRG explants were treated with anti-NGF and either pan-JNK inhibitor JNKV or JNKVIII, prior to assessment in the NGF withdrawal assay described above.

[3] = inhibitor 15 μM, listed as Act D

## C=C[C@@]1(C)CC(=O)[C@]2(O)[C@@]3(C)[C@@H](O)CCC(C)(C)[C@@H]3[C@H](OC(=O)CCN(C)C)[C@H](OC(C)=O)[C@@]2(C)O1 [NKH 477]
DRGs [1]
  Comments (observations on protection against neurodegeneration upon NGF withdrawal): Partial

## Cc1c2oc3c(C)ccc(C(=O)N[C@@H]4C(=O)N[C@H](C(C)C)C(=O)N5CCC[C@H]5C(=O)N(C)CC(=O)N(C)[C@@H](C(C)C)C(=O)O[C@@H]4C)c3nc-2c(C(=O)N[C@@H]2C(=O)N[C@H](C(C)C)C(=O)N3CCC[C@H]3C(=O)N(C)CC(=O)N(C)[C@@H](C(C)C)C(=O)O[C@@H]2C)c(N)c1=O [Actinomycin D] (I: T[dV]P[Sar][NMeV] / II: T[dV]P[Sar][NMeV]; ester I:1-I:C, II:1-II:C; linker I:N-II:N via Actinocin(9to1))
DRGs [2]; cell body inhibitors added to cell body compartment: 30 μM SB415, 15 μM Act D
  formation of varicosities in locally NGF-deprived axons: large number of axons with varicosities, as well as fragmented axons
DRGs [2]; inhibitor 15 μM
  Axon Compartment (axon protected when inhibitor is in axon compartment): No (4)
  Cell Body Compartment (axon protected when inhibitor is in cell body compartment): Yes (4)
DRGs [2]; [3]
  Axon Compartment (axon protected when inhibitor is in axon compartment): failed to prevent degeneration
  Cell Body Compartment (axon protected when inhibitor is in cell body compartment): did not degenerate; also recorded: protected from local degeneration

## C[C@@H]1C[C@@H]([C@H](O)CC2CC(=O)NC(=O)C2)C(=O)[C@@H](C)C1 [Cycloheximide]
DRGs [2]; inhibitor 5 μM
  Axon Compartment (axon protected when inhibitor is in axon compartment): No (2)
  Cell Body Compartment (axon protected when inhibitor is in cell body compartment): Yes (2)

## CC(NC(=O)/C(C#N)=C/c1ccc(O)c(O)c1)c1ccccc1 (centres unmarked) [Tyrphostin B44]
DRGs [1]
  Comments (observations on protection against neurodegeneration upon NGF withdrawal): Partial

## CCOc1nc(NC(=O)Cc2cc(OC)ccc2OC)cc(N)c1C#N [JNKVIII]
DRG explants
  most protective concentration: 4 µM
  protection of DRG explants from NGF-dependent degeneration: able to protect DRG explants from NGF-dependent degeneration

## OC(CN1CCNCC1)Cn1c2ccc(Br)cc2c2cc(Br)ccc21 (centres unmarked) [Bax Channel Blocker]
DRGs [1]
  Comments (observations on protection against neurodegeneration upon NGF withdrawal): Cell bodies detach

## N#C/C(=C1/Nc2ccccc2S1)c1ccnc(NCCc2cccnc2)n1 [JNKV]
DRG explants
  most protective concentration: 5 µM
  protection of DRG explants from NGF-dependent degeneration: able to protect DRG explants from NGF-dependent degeneration

## CCN(c1ccccc1)c1cc(NC)[n+](C)c(C)n1.[Cl-] [ZD7288]
DRGs [2]; inhibitor 5 μM
  Axon Compartment (axon protected when inhibitor is in axon compartment): No (3)
  Cell Body Compartment (axon protected when inhibitor is in cell body compartment): Yes (3)

## C=C[C@@]1(C)CC(=O)[C@]2(O)[C@@]3(C)[C@@H](O)CCC(C)(C)[C@@H]3[C@H](O)[C@H](OC(C)=O)[C@@]2(C)O1 [Forskolin]
DRGs [2]; inhibitor 3 μM
  Axon Compartment (axon protected when inhibitor is in axon compartment): Yes (2)
  Cell Body Compartment (axon protected when inhibitor is in cell body compartment): Yes (2)

## O=C1NC(=O)C(c2cn(CCCO)c3ncccc23)=C1c1cnccn1 [GSK3 inhibitor XI]
DRGs [2]; inhibitor 30 μM
  Axon Compartment (axon protected when inhibitor is in axon compartment): No (2)
  Cell Body Compartment (axon protected when inhibitor is in cell body compartment): Yes (2)

## COc1ccc(CNC(=O)Nc2ncc([N+](=O)[O-])s2)cc1 [AR-A014418]
DRGs [2]; inhibitor 20 μM
  Axon Compartment (axon protected when inhibitor is in axon compartment): No (1)
  Cell Body Compartment (axon protected when inhibitor is in cell body compartment): Yes (1)

## C[S+]([O-])c1ccc(-c2nc(-c3ccc(F)cc3)c(-c3ccncc3)[nH]2)cc1.Cl (centres unmarked) [SB 203580 HCI]
DRGs [1]
  Comments (observations on protection against neurodegeneration upon NGF withdrawal): Partial
